Assay [1] is described as follows: SOD activity, xanthine/xanthine oxidase with cytochrome C as acceptor (Example 2). Format: biochemical. As to conditions: for SOD: relative to C7 (C7 = 100). The protocol: Superoxide dismutase (SOD) activity was assayed by following the inhibition of the reduction of an electron acceptor molecule in the presence of the free-radical generating system xanthine/xanthine oxidase (McCord et al. (1973) Superoxide and Superoxide Dismutase in “Oxidases and Related Redox Systems, vol. I, King et al. eds., University Park press, Baltimore, pp. 51-76). The assay mixture consisted of 50 mM sodium phosphate, pH 7.8, 120 μM xanthine, 0.2 units/ml xanthine oxidase, with acceptor molecule and salen manganese compound, as indicated. Assays were conducted at 27±0.2° C. using a water-jacketed cell holder in a Beckman DU7400 spectrophotometer. In most cases, oxidized cytochrome c, at 0.13 mg/ml, was employed as acceptor and its reduction was monitored spectrophotometrically at 550 nm. In some experiments, nitroblue tetrazolium (NBT), at 80 μM, was substituted for cytochrome c as the acceptor. NBT reduction was also monitored at 550 nm. An estimated extinction coefficient for NBT reduction, 20,800 M^−1cm^−1, determined empirically by exhaustive reduction of NBT in the reaction mixture described above, was employed where indicated. […] Conversion of xanthine to urate was calculated using ε290's of […] for urate and 4050 M^−1cm^−1 for xanthine. […] For each compound, at least four different concentrations were tested in duplicate.

Assay [2] can be described thus: Peroxidase activity, H2O2-dependent oxidation of ABTS (Example 2). The note with it: for Peroxidase: relative to C7 (C7 = 100). The format is biochemical. As for the experimental part: Peroxidase activity was assayed by monitoring the hydrogen peroxide-dependent oxidation of 2,2′-azino-bis(3-ethylbenzthiazoline-6) sulfonic acid (ABTS) spectrophotometrically. Standard assay mixtures consisted of 50 mM sodium phosphate, pH 8.1, 0.9% sodium chloride, 0.5 mM ABTS, and H2O2 and salen manganese complex as indicated. Where indicated, 50 mM sodium phosphate buffers of pH 6.0 or pH 7.1 were substituted. Assays were conducted at 27±0.2° C. ABTS oxidation was monitored at 740 or 500 nm to eliminate interference by the salen manganese complexes, many of which absorb in the vicinity of the λmax of oxidized ABTS, and to avoid absorbance values that exceeded the linear range of the spectrophotometer. The amount of oxidized ABTS was estimated using an Δε740 of 20,300 M^−1cm^−1 or an Δε500 of 3400 M^−1cm^−1 calculated based upon the published molar extinction coefficient oat 405 nm (36,800).
(§1) Catalase and peroxidase activities were assayed as described in Example 2. Catalase assays contained 10 μM salen-manganese complex and 10 mM hydrogen peroxide. Peroxidase assays contained 10 μM salen-manganese complex and 0.2 mM hydrogen peroxide. Glucose-glucose oxidase toxicity assays were performed using human dermal fibroblasts as described in Example 2.

In assay [3] the test system is Human dermal fibroblasts (HF cells). As to the kind of experiment: Cell protection assay, glucose/glucose oxidase toxicity, XTT. Format: cell-based. The note with it: 80 μM; glucose oxidase 0.019 units/ml. The protocol: Human dermal fibroblasts (HF cells) were obtained from the American type tissue Culture Collection at passage 1 and cultured and propagated in a medium (HF medium) consisting of Dulbecco's Modified Eagle's Medium with 4.5 g/l D-glucose, 10% calf serum 4 mM glutamine, 50 units/ml penicillin, and 50 μg/ml streptomycin in a 37° C. humidified incubator equilibrated with 5% CO2. Cells were used at passages 5 or 6 for experiments. For cell protection assays, HF cells were seeded at a density of about 15,000 cells per cm2 onto 96-well culture plates and allowed to grow to confluence. To assess protection tert-butylhydroperoxide (t-BHP) toxicity, confluent cell layers were first treated with the indicated concentrations of test compounds dissolved in HF medium for 18 hr. The medium was then replaced with fresh medium containing test compounds and 0.5 mM tert-butylhydroperoxide (t-BHP) and cells were incubated for another 18 hr. The medium was then removed and replaced with fresh HF medium (100 μl per well) without test compounds or t-BHP. Fifty μl of XTT reagent (Boeringer Mannheim, Inc.), prepared as described by the manufacturer, was then added to each well and the plates returned to the incubator. After 2 hr., the absorbance at 490 nm was measured in a BioRad (Richmond, Calif.) Model 3550 plate-reader, using a reference wavelength of 655 nm. Control cells that had not been exposed to test compounds or toxic agents were included among the samples treated with XTT reagent. Absorbance measurements for blank wells, containing HF medium and XTT reagent but no cells, were also determined. To analyze protection from glucose/glucose oxidase toxicity, confluent cell layers were incubated with HF medium containing glucose oxidase (0.019 units/ml) along with test compounds, as indicated, for 18 hr in the tissue culture incubator. Fresh HF medium was then added and cell viability assessed using the XTT reagent as described above. For both these models, concentrations of toxic agents were selected that were reproducibly completely lethal. Cytotoxicity assessments were routinely confirmed by visual inspection of the cell layers prior to addition of the XTT reagent.
as §1
For orientation: Tetrazolium dyes change colour on reduction, which living cells bring about.

A short description of assay [4]: Catalase activity, conversion of H2O2 to oxygen, polarographic oxygen electrode (Example 2). As to conditions: relative to C7 (C7 = 100). Format: biochemical. As for the experimental part: Catalase activity was assayed by monitoring the conversion of H2O2 to oxygen using a Clark-type polarographic oxygen electrode. The apparatus consisted of a Mini Clark Style electrode, a 600 μl Oxygen Uptake Chamber, and a Chemical Microsensor system, all obtained from Diamond General Corporation (Ann Arbor, Mich.). The electrode was calibrated by immersion in nitrogen- or air-equilibrated buffers using a Dual Chamber Calibration Cell (Diamond General,. Corp.). Catalase reaction mixtures consisted of 50 mM sodium phosphate, pH 8.1, 0.9% sodium chloride, and salen manganese complex and H2O2 at the indicated concentrations. The temperature of the water-jacketed reaction chamber, as well as the calibration buffers, was maintained at 25±0.1° C. Data were collected at 1 sec intervals and stored-on a MacIntosh II computer using data acquisition hardware and software by Strawberry Tree, Inc. (Sunnyvale, Calif.). Dissolved oxygen concentrations were calculated as described previously (Del Rio et al. (1977) Anal. Biochem. 80: 409) based on a value of 2.5×10^−4 M oxygen for air-saturated buffer at 25° C. Linearity of the dissolved oxygen measurements within the experimental range was continued by determining the amount of oxygen generated from known quantities of H2O2 during exhaustive treatment with bovine liver catalase. Stock solutions of H2O2 were prepared by diluting a commercial 30% H2O2 solution in water and the H2O2 concentrations in these stocks were determined by absorbance at 240 nm, using a molar extinction coefficient of 44 (Stadtman, E R. et al. (1990) Proc. Natl. Acad. Sci. USA 87: 384). […] In the absence of salen manganese complex, H2O2 alone typically produced an early, relatively slow increase in signal. The slope of this increased signal was not proportional to H2O2 concentration (for example in one experiment, 1 and 10 Mm H2O2 yielded apparent rates of 12 and 14 μM oxygen per min, respectively) and may be due to an electrode artifact. […] Where presented, initial rates were calculated by determining the slope of the linear portion of time dependent plots of oxygen generation, usually comprising the first five seconds of the reaction. Unless otherwise indicated, these were corrected by subtracting the rate obtained with H2O2 alone. Where presented, endpoint oxygen generated was calculated from time-dependent plots, such as those shown in FIG. 14, as the difference between the baseline oxygen concentration immediately prior to substrate addition and the maximal oxygen concentration achieved during the course of the reaction. All reactions subjected to these calculations were run for a sufficient time to ensure that oxygen generation had ceased.
as §1

`COc1ccc2c(c1)C=NCCN=Cc1cc(OC)ccc1[O][Mn]([O]C(C)=O)[O]2` [Compound C38] returned an SOD in assay [1] of 100. Also, the Peroxidase rate in assay [2] (10 μM salen manganese complex, 0.2 mM H2O2) is listed as 19.8 ± 0.4 μM ABTS oxidized/min. In assay [2], the Peroxidase is reported as 129. Also, the “protection against glucose and glucose oxidase” value in assay [3] was “highly protective”.
The molecule `COc1cc2c(c(OC)c1)[O][Mn]([O]C(C)=O)[O]c1c(cc(OC)cc1OC)C=NCCN=C2` [Compound C42] had an SOD in assay [1] of 130. The molecule further yielded a Peroxidase in assay [2] of 171. In assay [4], this molecule registered a Catalase endpt. of 379 and a Catalase rate of 231.
In assay [1], `CC(=O)[O][Mn]1[O]c2ccccc2C=Nc2cccnc2N=Cc2ccccc2[O]1` [Compound C43] came in with an SOD of 57. In addition, the Peroxidase in assay [2] worked out at 71. For the same molecule, in assay [4], the Catalase endpt. turned out to be 494 and the Catalase rate came to 446.
In the same order, the values of `COc1cccc2c1[O][Mn]([O]C(C)=O)[O]c1c(cccc1OC)C=Nc1ncccc1N=C2` [Compound C45] are 83, 24, 674 and 357.
In turn, `COc1cccc2c1[O][Mn]([O]C(C)=O)[O]c1c(cccc1OC)C=Nc1ccccc1N=C2` [Compound C48] returned an SOD in assay [1] of 91. In assay [2], this molecule gave a Peroxidase of 88. In assay [4], the Catalase endpt. was 741 and the Catalase rate stood at 485.
On to `COc1cccc2c1[O][Mn]([Cl])[O]c1c(cccc1OC)C=NC1CCCCC1N=C2` (stereo not shown) [Compound C49], for which the SOD in assay [1] stood at 88. The molecule further registered a Peroxidase in assay [2] of 138. Also, in assay [4], the Catalase endpt. is recorded as 285 and the Catalase rate is 123.
Turning to `[O]=[V]1[O]c2ccccc2C=NCCN=Cc2ccccc2[O]1` [Compound C53], in assay [1], the “SOD activity (in words)” value is “noncatalytic SOD activity” and the SOD result is reported as “Noncatalytic”. For the same molecule, the Peroxidase in assay [2] is 0. In assay [4], this molecule came in with a Catalase endpt. of 0 and a Catalase rate of 0.
The molecule `[F][Mn]1[O]c2ccccc2C=NCCN=Cc2ccccc2[O]1` [Compound C54] gave an SOD in assay [1] of 75. This molecule gave a Peroxidase in assay [2] of 116.
Consider `[Br][Mn]1[O]c2ccccc2C=NCCN=Cc2ccccc2[O]1` [Compound C55], for which, in assay [1], the SOD came out at 178. In addition, in assay [2], the Peroxidase came out at 101.
As to `O=[N+]([O-])[Mn]1[O]c2ccccc2C=NCCN=Cc2ccccc2[O]1` [Compound C56], the SOD in assay [1] amounted to 200. Moreover, the Peroxidase in assay [2] came to 107.
On to `C1=NCCN=Cc2ccccc2[O][Zn][O]c2ccccc21` [Compound C60], for which the SOD in assay [1] turned out to be 0. The same molecule yielded a Peroxidase in assay [2] of 0.
As for `C1=NCCN=Cc2ccccc2[O][Cu][O]c2ccccc21` [Compound C63], the SOD in assay [1] came out at 0. In assay [2], this molecule showed a Peroxidase of 0.
Molecule `CCOc1cccc2c1[O][Mn]([Cl])[O]c1c(cccc1OCC)C=NCCN=C2` [Compound C67] had an SOD in assay [1] of 94. This molecule displayed a Peroxidase in assay [2] of 134. Moreover, in assay [4], the Catalase endpt. is given as 256 and the Catalase rate was 159.
The molecule `CCOc1cccc2c1[O][Mn]([O]C(C)=O)[O]c1c(cccc1OCC)C=NCCN=C2` [Compound C68] showed an SOD in assay [1] of 88. In addition, the Peroxidase in assay [2] was 162. In assay [4], this molecule showed a Catalase endpt. of 326 and a Catalase rate of 196.
Regarding `CC(=O)[O][Mn]1[O]c2c(O)cccc2C=NCCN=Cc2cccc(O)c2[O]1` [Compound C71], in assay [1], the SOD was determined as 75.
Take `Oc1ccc2c(c1)[O][Mn]([Cl])[O]c1cc(O)ccc1C=NCCN=C2` [Compound C72]: in assay [1], the SOD came to 58.
Consider `CC(=O)[O][Mn]1[O]c2cc(O)ccc2C=NCCN=Cc2ccc(O)cc2[O]1` [Compound C73], for which the SOD in assay [1] was 61.
`CC(=O)[O][Mn]1[O]c2ccc(O)cc2C=NCCN=Cc2cc(O)ccc2[O]1` [Compound C74] had an SOD in assay [1] of 65.
With `CC(=O)[O][Mn]1[O]c2ccccc2C(C)=NCCN=C(C)c2ccccc2[O]1` [Compound C85], the SOD in assay [1] amounted to 38. Further, the Peroxidase in assay [2] is 0. In assay [4], this molecule had a Catalase endpt. of 19 and a Catalase rate of 31.

The values above are taken from patent publication US7582786B2, “Synthetic catalytic free radical scavengers useful as antioxidants for prevention and therapy of disease” (Eukarion Inc., priority 1996, dated 2009).
